Data: patent US12139487B2, “Compounds and uses thereof” (Foghorn Therapeutics Inc., priority 2022, dated 2024)
pIC50: −log10 of the molar value.

Legend:
BRM = molecular target: T1, BRM (Homo sapiens, UniProt P51531); assay: ATPase catalytic activity assay (ADP-Glo), BRM; assay type: biochemical; settings: Table 10; for Ratio (BRG1 IC50 (μM) divided by BRM IC50 (μM)): ATPase assay, selectivity BRG1/BRM; for pIC50: ATPase catalytic activity assay (ADP-Glo)
T1 construct: made in house; host or cells: High Five insect cells
T1 sequence (P51531 whole entry): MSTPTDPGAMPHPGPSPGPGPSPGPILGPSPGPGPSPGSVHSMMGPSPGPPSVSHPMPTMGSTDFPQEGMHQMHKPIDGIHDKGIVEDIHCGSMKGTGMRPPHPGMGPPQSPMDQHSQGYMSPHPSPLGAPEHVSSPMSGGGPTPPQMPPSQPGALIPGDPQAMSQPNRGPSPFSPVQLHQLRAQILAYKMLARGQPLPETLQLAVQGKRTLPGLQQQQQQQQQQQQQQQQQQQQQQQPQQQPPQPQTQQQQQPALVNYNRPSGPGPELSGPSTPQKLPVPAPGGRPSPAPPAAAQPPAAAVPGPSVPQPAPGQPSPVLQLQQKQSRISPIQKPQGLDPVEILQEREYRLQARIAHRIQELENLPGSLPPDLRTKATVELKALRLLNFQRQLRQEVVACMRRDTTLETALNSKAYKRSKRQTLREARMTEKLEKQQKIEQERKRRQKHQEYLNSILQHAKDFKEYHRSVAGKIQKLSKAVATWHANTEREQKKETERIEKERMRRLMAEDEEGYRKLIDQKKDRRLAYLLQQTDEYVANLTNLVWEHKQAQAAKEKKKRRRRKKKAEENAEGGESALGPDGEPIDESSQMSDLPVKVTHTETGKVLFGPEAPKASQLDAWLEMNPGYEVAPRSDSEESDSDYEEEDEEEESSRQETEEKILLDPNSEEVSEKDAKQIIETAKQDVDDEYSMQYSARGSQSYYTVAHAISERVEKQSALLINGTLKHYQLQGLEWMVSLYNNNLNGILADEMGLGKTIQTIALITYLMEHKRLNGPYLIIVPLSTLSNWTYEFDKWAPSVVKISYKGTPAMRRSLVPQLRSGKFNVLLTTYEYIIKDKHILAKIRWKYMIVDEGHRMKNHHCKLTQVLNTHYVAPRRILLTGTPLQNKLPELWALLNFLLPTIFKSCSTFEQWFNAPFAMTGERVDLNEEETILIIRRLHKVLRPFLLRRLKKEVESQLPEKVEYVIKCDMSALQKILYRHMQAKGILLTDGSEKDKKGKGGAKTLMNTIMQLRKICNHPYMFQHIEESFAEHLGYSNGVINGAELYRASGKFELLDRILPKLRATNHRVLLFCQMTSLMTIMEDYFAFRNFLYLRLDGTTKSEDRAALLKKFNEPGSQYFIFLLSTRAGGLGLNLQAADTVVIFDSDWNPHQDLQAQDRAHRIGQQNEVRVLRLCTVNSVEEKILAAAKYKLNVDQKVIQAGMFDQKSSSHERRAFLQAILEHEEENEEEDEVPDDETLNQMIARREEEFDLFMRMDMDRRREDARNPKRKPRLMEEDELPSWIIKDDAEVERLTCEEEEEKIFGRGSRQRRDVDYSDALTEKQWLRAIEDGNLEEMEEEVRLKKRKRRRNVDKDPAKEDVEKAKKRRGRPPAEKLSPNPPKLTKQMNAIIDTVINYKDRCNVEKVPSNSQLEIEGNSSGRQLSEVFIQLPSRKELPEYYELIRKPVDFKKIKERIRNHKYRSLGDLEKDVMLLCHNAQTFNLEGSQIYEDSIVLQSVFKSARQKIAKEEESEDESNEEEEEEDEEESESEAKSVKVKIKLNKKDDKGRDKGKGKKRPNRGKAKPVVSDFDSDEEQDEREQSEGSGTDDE
In short: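 ADP-Glo luminescence measures ADP produced by BRM ATPase (30 nM) during 1 h at room temperature. ATP is 400 μM, with 20 nM salmon sperm DNA as cofactor. Buffer: 20 mM Tris pH 8, 20 mM MgCl2, 50 mM NaCl, 0.1% Tween-20, 1 mM DTT.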

BRG-1 = molecular target: T2, BRG-1 (Homo sapiens, UniProt P51532); assay: ATPase catalytic activity assay (ADP-Glo), BRG-1; assay type: biochemical; settings: Table 10, read-out: BRG1 IC50
T2 construct: made in house; host or cells: High Five insect cells
T2 sequence (P51532 whole entry): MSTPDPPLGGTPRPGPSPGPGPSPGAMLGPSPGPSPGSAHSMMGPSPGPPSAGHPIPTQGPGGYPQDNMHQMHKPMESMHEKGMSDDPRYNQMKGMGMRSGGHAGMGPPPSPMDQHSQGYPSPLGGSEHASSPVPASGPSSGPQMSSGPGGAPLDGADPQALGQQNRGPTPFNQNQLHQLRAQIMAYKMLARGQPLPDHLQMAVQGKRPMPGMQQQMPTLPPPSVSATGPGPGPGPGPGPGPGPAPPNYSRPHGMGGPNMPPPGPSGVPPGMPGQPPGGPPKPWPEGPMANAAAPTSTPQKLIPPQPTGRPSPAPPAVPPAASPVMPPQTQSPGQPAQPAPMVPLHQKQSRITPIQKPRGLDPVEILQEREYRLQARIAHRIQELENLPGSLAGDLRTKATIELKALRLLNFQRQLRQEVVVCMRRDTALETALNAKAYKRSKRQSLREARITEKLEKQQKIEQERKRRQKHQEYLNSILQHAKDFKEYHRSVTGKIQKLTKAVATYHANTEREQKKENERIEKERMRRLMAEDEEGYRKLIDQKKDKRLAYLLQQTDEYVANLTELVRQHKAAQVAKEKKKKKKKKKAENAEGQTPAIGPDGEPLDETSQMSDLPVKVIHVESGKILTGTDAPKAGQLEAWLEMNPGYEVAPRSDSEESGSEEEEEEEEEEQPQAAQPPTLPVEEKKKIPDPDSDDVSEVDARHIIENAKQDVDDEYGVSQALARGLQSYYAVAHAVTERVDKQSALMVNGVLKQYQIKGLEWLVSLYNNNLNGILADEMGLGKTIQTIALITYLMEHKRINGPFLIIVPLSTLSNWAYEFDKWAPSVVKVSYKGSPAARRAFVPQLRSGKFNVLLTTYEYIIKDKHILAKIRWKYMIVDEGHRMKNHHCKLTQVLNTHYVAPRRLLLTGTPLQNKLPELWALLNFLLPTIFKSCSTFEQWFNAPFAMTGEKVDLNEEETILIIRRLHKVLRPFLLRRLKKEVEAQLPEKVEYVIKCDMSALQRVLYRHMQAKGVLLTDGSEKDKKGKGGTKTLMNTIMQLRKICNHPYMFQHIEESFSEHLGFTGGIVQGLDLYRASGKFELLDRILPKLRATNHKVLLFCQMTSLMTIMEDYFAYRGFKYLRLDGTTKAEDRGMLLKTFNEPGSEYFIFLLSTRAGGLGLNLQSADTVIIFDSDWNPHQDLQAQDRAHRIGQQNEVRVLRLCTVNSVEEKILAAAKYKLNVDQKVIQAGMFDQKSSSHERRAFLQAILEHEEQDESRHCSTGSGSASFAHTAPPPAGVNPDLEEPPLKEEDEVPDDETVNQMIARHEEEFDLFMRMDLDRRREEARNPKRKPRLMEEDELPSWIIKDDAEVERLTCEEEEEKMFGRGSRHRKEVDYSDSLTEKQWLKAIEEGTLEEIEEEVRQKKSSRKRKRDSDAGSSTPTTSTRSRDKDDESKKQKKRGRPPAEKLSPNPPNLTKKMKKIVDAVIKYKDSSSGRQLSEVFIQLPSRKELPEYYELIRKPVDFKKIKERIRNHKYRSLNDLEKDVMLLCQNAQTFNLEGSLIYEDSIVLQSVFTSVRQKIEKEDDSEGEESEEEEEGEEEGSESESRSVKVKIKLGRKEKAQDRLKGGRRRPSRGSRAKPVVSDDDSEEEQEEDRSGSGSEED
In short: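 ADP produced by BRG-1 was quantified by luciferase luminescence. A 60 min room-temperature ADP-to-ATP conversion followed a 40 min ATP-depletion step.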

O=C(NCc1cc2nc(N3CCOc4ccc(C5CC5)nc43)ccc2cn1)c1cc(F)c2c(c1)S(=O)(=O)[C@@H](F)COC2 [Compound 72]
Ratio (BRG1 IC50 (μM) divided by BRM IC50 (μM)) (BRM): 21.76 | pIC50 (BRM): 8.55 | pIC50 (BRG-1): 7.18

Cc1ccc(-c2ccc3cnc(CNC(=O)c4cc(F)c5c(c4)S(=O)(=O)[C@@H](F)COC5)cc3n2)c(OC(F)F)n1 [Compound 73]
Ratio (BRG1 IC50 (μM) divided by BRM IC50 (μM)) (BRM): 20.62 | pIC50 (BRM): 8.55 | pIC50 (BRG-1): 7.24

O=C(NCc1cc2nc(N3CCOc4cc([C@@H]5CC5(F)F)cnc43)ccc2cn1)c1cc(F)c2c(c1)S(=O)(=O)[C@@H](F)COC2 [Compound 74]
Ratio (BRG1 IC50 (μM) divided by BRM IC50 (μM)) (BRM): 9.59 | pIC50 (BRM): 8.55 | pIC50 (BRG-1): 7.57

COc1nc(C(C)(F)F)ccc1-c1ccc2cnc(CNC(=O)c3cc(F)c4c(c3)S(=O)(=O)[C@@H](F)COC4)cc2n1 [Compound 75]
Ratio (BRG1 IC50 (μM) divided by BRM IC50 (μM)) (BRM): 26.00 | pIC50 (BRM): 8.55 | pIC50 (BRG-1): 7.10

O=C(NCc1cc2nc(N3CCCc4c3ccnc4OC3CC3)ccc2cn1)c1cc(F)c2c(c1)S(=O)(=O)[C@@H](F)CCO2 [Compound 76]
Ratio (BRG1 IC50 (μM) divided by BRM IC50 (μM)) (BRM): 16.02 | pIC50 (BRM): 8.55 | pIC50 (BRG-1): 7.35

O=C(NCc1cc2cc(-c3cncc(C4CC4)n3)ccc2cn1)c1cc(F)c2c(c1)S(=O)(=O)[C@@H](F)COC2 [Compound 77]
Ratio (BRG1 IC50 (μM) divided by BRM IC50 (μM)) (BRM): 23.82 | pIC50 (BRM): 8.55 | pIC50 (BRG-1): 7.17

C[C@@H]1CN(c2cccc(-c3ccc4cnc(CNC(=O)c5cc(Cl)c6c(c5)S(=O)(=O)[C@@H](F)COC6)cc4n3)n2)C[C@H](C)O1 [Compound 79]
Ratio (BRG1 IC50 (μM) divided by BRM IC50 (μM)) (BRM): 12.12 | pIC50 (BRM): 8.52 | pIC50 (BRG-1): 7.46

C[C@@H]1[C@@H](F)CN1c1cnc2c(c1)OCCN2c1ccc2cnc(CNC(=O)c3cc(F)c4c(c3)S(=O)(=O)[C@@H](F)CCO4)cc2n1 [Compound 80]
Ratio (BRG1 IC50 (μM) divided by BRM IC50 (μM)) (BRM): 16.24 | pIC50 (BRM): 8.52 | pIC50 (BRG-1): 7.32

COc1cc2c(nc1C(F)F)N(c1ccc3cnc(CNC(=O)c4cc(F)c5c(c4)S(=O)(=O)[C@@H](F)CCO5)cc3n1)CCO2 [Compound 81]
Ratio (BRG1 IC50 (μM) divided by BRM IC50 (μM)) (BRM): 14.31 | pIC50 (BRM): 8.52 | pIC50 (BRG-1): 7.33

CCc1cnc2c(c1)OCCN2c1ccc2cnc(CNC(=O)c3cc(F)c4c(c3)S(=O)(=O)[C@@H](F)CCO4)cc2n1 [Compound 82]
Ratio (BRG1 IC50 (μM) divided by BRM IC50 (μM)) (BRM): 22.96 | pIC50 (BRM): 8.51 | pIC50 (BRG-1): 7.17

Cc1cnc2c(c1)OCCN2c1ccc2cnc(CNC(=O)c3ccc4c(c3)S(=O)(=O)[C@@H](F)CCO4)cc2n1 [Compound 83]
Ratio (BRG1 IC50 (μM) divided by BRM IC50 (μM)) (BRM): 19.36 | pIC50 (BRM): 8.51 | pIC50 (BRG-1): 7.30

[2H]C1([2H])Oc2c(F)cc(C(=O)NCc3cc4nc(-c5ccc(C(F)F)nc5OC)ccc4cn3)cc2S(=O)(=O)[C@@]([2H])(F)C1([2H])[2H] [Compound 84]
Ratio (BRG1 IC50 (μM) divided by BRM IC50 (μM)) (BRM): 25.97 | pIC50 (BRM): 8.51 | pIC50 (BRG-1): 7.02

O=C(NCc1cc2nc(-c3ccc(OC(F)F)c(C4CC4)n3)ccc2cn1)c1cc(F)c2c(c1)S(=O)(=O)[C@@H](F)COC2 [Compound 85]
Ratio (BRG1 IC50 (μM) divided by BRM IC50 (μM)) (BRM): 20.37 | pIC50 (BRM): 8.51 | pIC50 (BRG-1): 7.16

O=C(NCc1cc2nc(N3CCOc4ccc(N5CC[C@@H](F)C5)nc43)ccc2cn1)c1cc(F)c2c(c1)S(=O)(=O)[C@@H](F)CCO2 [Compound 86]
Ratio (BRG1 IC50 (μM) divided by BRM IC50 (μM)) (BRM): 17.70 | pIC50 (BRM): 8.49 | pIC50 (BRG-1): 7.29

O=C(NCc1cc2nc(N3CCOc4cc([C@@H]5CC5(F)F)cnc43)ccc2cn1)c1cc(F)c2c(c1)S(=O)(=O)[C@@H](F)CCO2 [Compound 87]
Ratio (BRG1 IC50 (μM) divided by BRM IC50 (μM)) (BRM): 20.66 | pIC50 (BRM): 8.49 | pIC50 (BRG-1): 7.11

O=C(NCc1cc2nc(N3CCOc4ccc([C@H]5C[C@H]5F)nc43)ccc2cn1)c1cc(F)c2c(c1)S(=O)(=O)[C@@H](F)COC2 [Compound 88]
Ratio (BRG1 IC50 (μM) divided by BRM IC50 (μM)) (BRM): 21.33 | pIC50 (BRM): 8.49 | pIC50 (BRG-1): 7.05

O=C(NCc1cc2nc(-c3ccc(OC(F)F)c(C4CC4)n3)ccc2cn1)c1cc(F)c2c(c1)S(=O)(=O)[C@@H](F)CCO2 [Compound 89]
Ratio (BRG1 IC50 (μM) divided by BRM IC50 (μM)) (BRM): 28.75 | pIC50 (BRM): 8.49 | pIC50 (BRG-1): 6.88

[2H]C1([2H])Oc2c(F)cc(C(=O)NCc3cc4nc(N5CCOc6cc(C7CC7)cnc65)ccc4cn3)cc2S(=O)(=O)[C@]([2H])(F)C1([2H])[2H] [Compound 90]
Ratio (BRG1 IC50 (μM) divided by BRM IC50 (μM)) (BRM): 15.80 | pIC50 (BRM): 8.49 | pIC50 (BRG-1): 7.29

CCOc1cc(C(F)F)nc2c1OCCN2c1ccc2cnc(CNC(=O)c3cc(F)c4c(c3)S(=O)(=O)[C@@H](F)CCO4)cc2n1 [Compound 91]
Ratio (BRG1 IC50 (μM) divided by BRM IC50 (μM)) (BRM): 14.38 | pIC50 (BRM): 8.49 | pIC50 (BRG-1): 7.33

O=C(NCc1cc2nc(N3CCOc4ccc(C5CC5)nc43)ccc2cn1)c1ccc2c(c1)S(=O)(=O)[C@@H](F)CCO2 [Compound 96]
Ratio (BRG1 IC50 (μM) divided by BRM IC50 (μM)) (BRM): 22.86 | pIC50 (BRM): 8.47 | pIC50 (BRG-1): 7.06

CO[C@H]1CN(c2cccc(-c3ccc4cnc(CNC(=O)c5cc(F)c6c(c5)S(=O)(=O)[C@@H](F)CCO6)cc4n3)n2)C[C@@H]1F [Compound 97]
Ratio (BRG1 IC50 (μM) divided by BRM IC50 (μM)) (BRM): 17.66 | pIC50 (BRM): 8.47 | pIC50 (BRG-1): 7.18

COc1nc([C@H](F)CF)ccc1-c1ccc2cnc(CNC(=O)c3cc(F)c4c(c3)S(=O)(=O)[C@@H](F)CCO4)cc2n1 [Compound 98]
Ratio (BRG1 IC50 (μM) divided by BRM IC50 (μM)) (BRM): 31.77 | pIC50 (BRM): 8.46 | pIC50 (BRG-1): 6.91

CCN(CC)c1cnc2c(c1)OCCN2c1ccc2cnc(CNC(=O)c3cc(F)c4c(c3)S(=O)(=O)[C@@H](F)CCO4)cc2n1 [Compound 99]
Ratio (BRG1 IC50 (μM) divided by BRM IC50 (μM)) (BRM): 12.19 | pIC50 (BRM): 8.46 | pIC50 (BRG-1): 7.37

Cc1cc(C(=O)NCc2cc3nc(-c4cccc(N5C[C@@H](C)O[C@@H](C)C5)n4)ccc3cn2)cc2c1OCC[C@H](F)S2(=O)=O [Compound 100]
Ratio (BRG1 IC50 (μM) divided by BRM IC50 (μM)) (BRM): 13.01 | pIC50 (BRM): 8.46 | pIC50 (BRG-1): 7.35

O=C(NCc1cc2cc(-c3cncc(N4CCCC4)n3)ccc2cn1)c1cc(F)c2c(c1)S(=O)(=O)[C@@H](F)CCO2 [Compound 101]
Ratio (BRG1 IC50 (μM) divided by BRM IC50 (μM)) (BRM): 23.62 | pIC50 (BRM): 8.46 | pIC50 (BRG-1): 7.08

O=C(NCc1cc2nc(N3CCOc4cc(F)cnc43)ccc2cn1)c1cc(F)c2c(c1)S(=O)(=O)[C@@H](F)CCO2 [Compound 102]
Ratio (BRG1 IC50 (μM) divided by BRM IC50 (μM)) (BRM): 26.75 | pIC50 (BRM): 8.44 | pIC50 (BRG-1): 7.02

[2H]C([2H])([2H])Oc1nc(C(F)F)ccc1-c1ccc2cnc(CNC(=O)c3cc(F)c4c(c3)S(=O)(=O)[C@@H](F)COC4)cc2n1 [Compound 103]
Ratio (BRG1 IC50 (μM) divided by BRM IC50 (μM)) (BRM): 12.05 | pIC50 (BRM): 8.44 | pIC50 (BRG-1): 7.36

CO[C@@H]1CN(c2cccc(-c3ccc4cnc(CNC(=O)c5cc(F)c6c(c5)S(=O)(=O)[C@@H](F)CCO6)cc4n3)n2)C[C@H]1C [Compound 104]
Ratio (BRG1 IC50 (μM) divided by BRM IC50 (μM)) (BRM): 10.21 | pIC50 (BRM): 8.44 | pIC50 (BRG-1): 7.37

CN(CC(F)F)c1cnc2c(c1)OCCN2c1ccc2cnc(CNC(=O)c3cc(F)c4c(c3)S(=O)(=O)[C@@H](F)CCO4)cc2n1 [Compound 105]
Ratio (BRG1 IC50 (μM) divided by BRM IC50 (μM)) (BRM): 9.68 | pIC50 (BRM): 8.43 | pIC50 (BRG-1): 7.44

CCOCc1ccnc2c1OCCN2c1ccc2cnc(CNC(=O)c3cc(F)c4c(c3)S(=O)(=O)[C@@H](F)CCO4)cc2n1 [Compound 108]
Ratio (BRG1 IC50 (μM) divided by BRM IC50 (μM)) (BRM): 16.69 | pIC50 (BRM): 8.41 | pIC50 (BRG-1): 7.19

O=C(NCc1cc2nc(N3CCOc4cc(N5CC[C@H](F)[C@@H](F)C5)cnc43)ccc2cn1)c1cc(F)c2c(c1)S(=O)(=O)[C@@H](F)CCO2 [Compound 109]
Ratio (BRG1 IC50 (μM) divided by BRM IC50 (μM)) (BRM): 17.52 | pIC50 (BRM): 8.41 | pIC50 (BRG-1): 7.06

C#Cc1ccc2c(n1)N(c1ccc3cnc(CNC(=O)c4cc(F)c5c(c4)S(=O)(=O)[C@@H](F)CCO5)cc3n1)CCO2 [Compound 110]
Ratio (BRG1 IC50 (μM) divided by BRM IC50 (μM)) (BRM): 15.35 | pIC50 (BRM): 8.41 | pIC50 (BRG-1): 7.16

O=C(NCc1cc2nc(-c3cccc(N4CCC4)n3)ccc2cn1)c1cc(F)c2c(c1)S(=O)(=O)[C@@H](F)COC2 [Compound 111]
Ratio (BRG1 IC50 (μM) divided by BRM IC50 (μM)) (BRM): 19.81 | pIC50 (BRM): 8.41 | pIC50 (BRG-1): 7.10

O=C(NCc1cc2nc(N3CCOc4cc(N5CC[C@H](F)[C@@H](F)C5)cnc43)ccc2cn1)c1cc(Cl)c2c(c1)S(=O)(=O)[C@@H](F)COC2 [Compound 112]
Ratio (BRG1 IC50 (μM) divided by BRM IC50 (μM)) (BRM): 14.50 | pIC50 (BRM): 8.41 | pIC50 (BRG-1): 7.24
